Laboratory results: PubChem BioAssay (NCI)
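48-hour exposure; five concentrations; linearly interpolated endpoints. GI50 is the concentration that inhibits growth by half. TGI: total growth inhibition.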

Legend:
Assay in all cases: NCI anticancer screen, dose series, 48 h
TK-10 renal = tested on: TK-10 renal
HOP-62 NSCLC = tested on: HOP-62 NSCLC
UACC-257 melanoma = tested on: UACC-257 melanoma
SR leukemia = tested on: SR leukemia
OVCAR-8 ovarian = tested on: OVCAR-8 ovarian
MCF7 breast = tested on: MCF7 breast
U251 CNS = tested on: U251 CNS
NCI-H226 lung = tested on: NCI-H226 lung
CCRF-CEM leukemia = tested on: CCRF-CEM leukemia
EKVX NSCLC = tested on: EKVX NSCLC
NCI-H23 lung = tested on: NCI-H23 lung
NCI-H522 lung = tested on: NCI-H522 lung
SNB-19 CNS = tested on: SNB-19 CNS
HOP-92 NSCLC = tested on: HOP-92 NSCLC
SNB-75 CNS = tested on: SNB-75 CNS
PC-3 prostate = tested on: PC-3 prostate
OVCAR-3 ovarian = tested on: OVCAR-3 ovarian
SN12C renal = tested on: SN12C renal
MDA-MB-435 = tested on: MDA-MB-435
COLO 205 colon = tested on: COLO 205 colon
M14 melanoma = tested on: M14 melanoma
RXF 393 renal = tested on: RXF 393 renal
NCI/ADR-RES ovarian = tested on: NCI/ADR-RES ovarian
T-47D breast = tested on: T-47D breast
SF-268 CNS = tested on: SF-268 CNS
SK-MEL-5 melanoma = tested on: SK-MEL-5 melanoma
SK-MEL-2 melanoma = tested on: SK-MEL-2 melanoma
OVCAR-5 ovarian = tested on: OVCAR-5 ovarian
HT29 colon = tested on: HT29 colon
HCT-116 colon = tested on: HCT-116 colon
SW-620 colon = tested on: SW-620 colon
K-562 leukemia = tested on: K-562 leukemia
HS 578T breast = tested on: HS 578T breast
HL-60(TB) leukemia = tested on: HL-60(TB) leukemia
NCI-H460 lung = tested on: NCI-H460 lung
MOLT-4 leukemia = tested on: MOLT-4 leukemia
OVCAR-4 ovarian = tested on: OVCAR-4 ovarian
MALME-3M melanoma = tested on: MALME-3M melanoma
RPMI-8226 leukemia = tested on: RPMI-8226 leukemia
ACHN renal = tested on: ACHN renal
SF-539 CNS = tested on: SF-539 CNS
IGROV1 ovarian = tested on: IGROV1 ovarian
DU-145 prostate = tested on: DU-145 prostate
LOX IMVI melanoma = tested on: LOX IMVI melanoma
MDA-MB-231 breast = tested on: MDA-MB-231 breast
CAKI-1 renal = tested on: CAKI-1 renal
UO-31 renal = tested on: UO-31 renal
SK-OV-3 ovarian = tested on: SK-OV-3 ovarian
SK-MEL-28 melanoma = tested on: SK-MEL-28 melanoma
SF-295 CNS = tested on: SF-295 CNS
A498 renal = tested on: A498 renal
A549 NSCLC = tested on: A549 NSCLC
UACC-62 melanoma = tested on: UACC-62 melanoma
BT-549 breast = tested on: BT-549 breast
HCT-15 colon = tested on: HCT-15 colon
KM12 colon = tested on: KM12 colon
HCC-2998 colon = tested on: HCC-2998 colon
786-0 renal = tested on: 786-0 renal

SMILES: CCc1cc(Cc2cc(CC)cc(C(C)(C)C)c2O)c(O)c(C(C)(C)C)c1
- GI50 (TK-10 renal): 3.03 µM
- TGI (TK-10 renal): 9.41 µM
- GI50 (HOP-62 NSCLC): 4.39 µM
- TGI (HOP-62 NSCLC): 17.1 µM
- GI50 (UACC-257 melanoma): 2.79 µM
- TGI (UACC-257 melanoma): 11.6 µM
- GI50 (SR leukemia): 3.28 µM
- TGI (SR leukemia): 18.7 µM
- GI50 (OVCAR-8 ovarian): 3.45 µM
- TGI (OVCAR-8 ovarian): 12.3 µM
- GI50 (MCF7 breast): 2.49 µM
- TGI (MCF7 breast): 7.74 µM
- GI50 (U251 CNS): 3.13 µM
- TGI (U251 CNS): 11 µM
- GI50 (NCI-H226 lung): 4.88 µM
- TGI (NCI-H226 lung): 16.1 µM
- GI50 (CCRF-CEM leukemia): 5.16 µM
- TGI (CCRF-CEM leukemia): > 100 µM
- GI50 (EKVX NSCLC): 2.24 µM
- TGI (EKVX NSCLC): 6.77 µM
- GI50 (NCI-H23 lung): 3.33 µM
- TGI (NCI-H23 lung): 12.5 µM
- GI50 (NCI-H522 lung): 2.38 µM
- TGI (NCI-H522 lung): 8.29 µM
- GI50 (SNB-19 CNS): 3.13 µM
- TGI (SNB-19 CNS): 11.8 µM
- GI50 (HOP-92 NSCLC): 2.25 µM
- TGI (HOP-92 NSCLC): 7.97 µM
- GI50 (SNB-75 CNS): 3.37 µM
- TGI (SNB-75 CNS): 14.1 µM
- GI50 (PC-3 prostate): 3.86 µM
- TGI (PC-3 prostate): 14.7 µM
- GI50 (OVCAR-3 ovarian): 2.2 µM
- TGI (OVCAR-3 ovarian): 5.33 µM
- GI50 (SN12C renal): 3.82 µM
- TGI (SN12C renal): 13.7 µM
- GI50 (MDA-MB-435): 2.35 µM
- TGI (MDA-MB-435): 7.16 µM
- GI50 (COLO 205 colon): 1.89 µM
- TGI (COLO 205 colon): 3.56 µM
- GI50 (M14 melanoma): 3.63 µM
- TGI (M14 melanoma): 14.4 µM
- GI50 (RXF 393 renal): 1.81 µM
- TGI (RXF 393 renal): 4.98 µM
- GI50 (NCI/ADR-RES ovarian): 3.94 µM
- TGI (NCI/ADR-RES ovarian): 14.7 µM
- GI50 (T-47D breast): 2.59 µM
- TGI (T-47D breast): 7.87 µM
- GI50 (SF-268 CNS): 3.4 µM
- TGI (SF-268 CNS): 12.6 µM
- GI50 (SK-MEL-5 melanoma): 3.63 µM
- TGI (SK-MEL-5 melanoma): 12.7 µM
- GI50 (SK-MEL-2 melanoma): 2.63 µM
- TGI (SK-MEL-2 melanoma): 7.08 µM
- GI50 (OVCAR-5 ovarian): 9.69 µM
- TGI (OVCAR-5 ovarian): 21.4 µM
- GI50 (HT29 colon): 2.9 µM
- TGI (HT29 colon): 11.5 µM
- GI50 (HCT-116 colon): 2.09 µM
- TGI (HCT-116 colon): 5.82 µM
- GI50 (SW-620 colon): 2.25 µM
- TGI (SW-620 colon): 7.07 µM
- GI50 (K-562 leukemia): 3.37 µM
- TGI (K-562 leukemia): 13.9 µM
- GI50 (HS 578T breast): 2.59 µM
- TGI (HS 578T breast): 8.29 µM
- GI50 (HL-60(TB) leukemia): 4.42 µM
- TGI (HL-60(TB) leukemia): > 100 µM
- GI50 (NCI-H460 lung): 2.59 µM
- TGI (NCI-H460 lung): 6.98 µM
- GI50 (MOLT-4 leukemia): 3.99 µM
- TGI (MOLT-4 leukemia): > 100 µM
- GI50 (OVCAR-4 ovarian): 3.56 µM
- TGI (OVCAR-4 ovarian): 12.7 µM
- GI50 (MALME-3M melanoma): 1.16 µM
- TGI (MALME-3M melanoma): 3.48 µM
- GI50 (RPMI-8226 leukemia): 3.35 µM
- TGI (RPMI-8226 leukemia): 28.4 µM
- GI50 (ACHN renal): 3.27 µM
- TGI (ACHN renal): 10.4 µM
- GI50 (SF-539 CNS): 2.51 µM
- TGI (SF-539 CNS): 5.98 µM
- GI50 (IGROV1 ovarian): 2.53 µM
- TGI (IGROV1 ovarian): 8.05 µM
- GI50 (DU-145 prostate): 3.53 µM
- TGI (DU-145 prostate): 13 µM
- GI50 (LOX IMVI melanoma): 3.27 µM
- TGI (LOX IMVI melanoma): 12 µM
- GI50 (MDA-MB-231 breast): 1.87 µM
- TGI (MDA-MB-231 breast): 3.92 µM
- GI50 (CAKI-1 renal): 1.92 µM
- TGI (CAKI-1 renal): 5.75 µM
- GI50 (UO-31 renal): 2.79 µM
- TGI (UO-31 renal): 11.7 µM
- GI50 (SK-OV-3 ovarian): 3.81 µM
- TGI (SK-OV-3 ovarian): 13.2 µM
- GI50 (SK-MEL-28 melanoma): 2.39 µM
- TGI (SK-MEL-28 melanoma): 7.53 µM
- GI50 (SF-295 CNS): 2.06 µM
- TGI (SF-295 CNS): 4.88 µM
- GI50 (A498 renal): 1.76 µM
- TGI (A498 renal): 5.39 µM
- GI50 (A549 NSCLC): 3.18 µM
- TGI (A549 NSCLC): 13.2 µM
- GI50 (UACC-62 melanoma): 2.4 µM
- TGI (UACC-62 melanoma): 7.85 µM
- GI50 (BT-549 breast): 2.16 µM
- TGI (BT-549 breast): 7.76 µM
- GI50 (HCT-15 colon): 3.13 µM
- TGI (HCT-15 colon): 11 µM
- GI50 (KM12 colon): 2.28 µM
- TGI (KM12 colon): 6.35 µM
- GI50 (HCC-2998 colon): 2.42 µM
- TGI (HCC-2998 colon): 6.52 µM
- GI50 (786-0 renal): 3.5 µM
- TGI (786-0 renal): 14.4 µM
